Source: patent US20240368150A1 (Hoffmann-La Roche Inc., priority 2021, published 2024)
Read-outs that look alike come from different tables or passages of the source.

Experiments:
primary human T-cells [1] = assay: Proliferation assay after 5 days (CellTiter-Glo, CD3 stimulation; PBS counter screen); format: cell-based; settings: CD3 stimulation; for Emax / EC50: Homo sapiens, T-cell, 120 h; for Emax: read-out: Emax proliferation (% activation); for EC50: primary human T-cells, CellTiter-Glo after 5 days, EC50 of fitted sigmoidal curve, read-out: Tcell Proliferation CD3 EC50
Outline: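 Compounds were added to medium-only plates, and proliferation was read 5 days later as luminescence from CellTiter-Glo 2.0, whose ATP signal is proportional to cell number. Plates and reagent were equilibrated to room temperature for 45 min before an equal volume of reagent was added, with 15 min rocking.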

primary human T-cells [2] = tested on: primary human T-cells
[3] = 5 days, normalized to reference compound A1 as stimulator control = 100%, DMSO neutral control

Row | EC50 (primary human T-cells [2]) [nM] | SMILES | Emax (primary human T-cells [1]; [3]) [%] | EC50 (primary human T-cells [1]) [nM] | Emax proliferation (% activation) (primary human T-cells [1]; [3])
1 | 988 | CN1CCN(CC(C)(C)c2nnc(-c3cc4c(cc3F)S(=O)(=O)C[C@H](N)C(=O)N4Cc3ccc(Cl)cc3)o2)CC1 [Example 148, (3R)-3-amino-5-[(4-chlorophenyl)methyl]-7-[5-[1,1-dimethyl-2-(4-methylpiperazin-1-yl)ethyl]-1,3,4-oxadiazol-2-yl]-8-fluoro-1,1-dioxo-2,3-dihydro-1λ^6,5-benzothiazepin-4-one] | 48 | > 10000 | –
2 | 4230 | CC(C)(CCCN)c1nnc(-c2cc3c(cc2F)S(=O)(=O)C[C@H](N)C(=O)N3Cc2ccc(Cl)cc2)o1 [Example 149, (3R)-3-amino-7-[5-(4-amino-1,1-dimethyl-butyl)-1,3,4-oxadiazol-2-yl]-5-[(4-chlorophenyl)methyl]-8-fluoro-1,1-dioxo-2,3-dihydro-1λ^6,5-benzothiazepin-4-one] | 57 | 2560 | –
3 | 358 | CCN1CC(c2nnc(-c3cc4c(cc3F)S(=O)(=O)C[C@H](N)C(=O)N4Cc3ccc(Cl)cc3)o2)CC(F)(F)C1 (stereo partly drawn) [Example 150, (3R)-3-amino-5-[(4-chlorophenyl)methyl]-7-[5-(1-ethyl-5,5-difluoro-3-piperidyl)-1,3,4-oxadiazol-2-yl]-8-fluoro-1,1-dioxo-2,3-dihydro-1λ^6,5-benzothiazepin-4-one] | 128 | 75.7 | –
4 | 93.4 | COCCN1CC(c2nnc(-c3cc4c(cc3F)S(=O)(=O)C[C@H](N)C(=O)N4Cc3ccc(Cl)cc3)o2)CC(F)(F)C1 (stereo partly drawn) [Example 151, (3R)-3-amino-5-[(4-chlorophenyl)methyl]-7-[5-[5,5-difluoro-1-(2-methoxyethyl)-3-piperidyl]-1,3,4-oxadiazol-2-yl]-8-fluoro-1,1-dioxo-2,3-dihydro-1λ^6,5-benzothiazepin-4-one] | 112 | 45.9 | –
5 | 477 | N[C@H]1CS(=O)(=O)c2cc(F)c(-c3nnc(C4CN(CCO)CC(F)(F)C4)o3)cc2N(Cc2ccc(Cl)cc2)C1=O (stereo partly drawn) [Example 152, (3R)-3-amino-5-[(4-chlorophenyl)methyl]-7-[5-[5,5-difluoro-1-(2-hydroxyethyl)-3-piperidyl]-1,3,4-oxadiazol-2-yl]-8-fluoro-1,1-dioxo-2,3-dihydro-1λ^6,5-benzothiazepin-4-one] | 78 | 549 | –
6 | 246 | CN1CC(c2nnc(-c3cc4c(cc3F)S(=O)(=O)C[C@H](N)C(=O)N4Cc3ccc(Cl)cc3)o2)CC(F)(F)C1 (stereo partly drawn) [Example 153, (3R)-3-amino-5-[(4-chlorophenyl)methyl]-7-[5-(5,5-difluoro-1-methyl-3-piperidyl)-1,3,4-oxadiazol-2-yl]-8-fluoro-1,1-dioxo-2,3-dihydro-1λ^6,5-benzothiazepin-4-one] | – | 112 | 150
7 | 890 | CN1CCCC(c2nnc(-c3cc4c(cc3F)S(=O)(=O)C[C@H](N)C(=O)N4Cc3ccc(Cl)cc3)o2)C1 (stereo partly drawn) [Example 154, (3R)-3-amino-5-[(4-chlorophenyl)methyl]-8-fluoro-7-[5-(1-methyl-3-piperidyl)-1,3,4-oxadiazol-2-yl]-1,1-dioxo-2,3-dihydro-1λ^6,5-benzothiazepin-4-one] | 86 | 1720 | –
8 | 778 | CN1CC(C)(c2nnc(-c3cc4c(cc3F)S(=O)(=O)C[C@H](N)C(=O)N4Cc3ccc(Cl)cc3)o2)C1 [Example 155, (3R)-3-amino-5-[(4-chlorophenyl)methyl]-7-[5-(1,3-dimethylazetidin-3-yl)-1,3,4-oxadiazol-2-yl]-8-fluoro-1,1-dioxo-2,3-dihydro-1λ^6,5-benzothiazepin-4-one] | 72 | 4180 | –
9 | 3340 | CC(C)(CNC1COC1)c1nnc(-c2cc3c(cc2F)S(=O)(=O)C[C@H](N)C(=O)N3Cc2ccc(Cl)cc2)o1 [Example 156, (3R)-3-amino-5-[(4-chlorophenyl)methyl]-7-[5-[1,1-dimethyl-2-(oxetan-3-ylamino)ethyl]-1,3,4-oxadiazol-2-yl]-8-fluoro-1,1-dioxo-2,3-dihydro-1lambda6,5-benzothiazepin-4-one] | 135 | 8130 | –
